The text below walks through data of patent publication EP2221053A1, “Pharmaceutical composition comprising protein methyltransferase I inhibitors and its use for treating tumour diseases” (Albert-Ludwigs-Universität Freiburg, priority 2009, dated 2010).

A word on the IC50: it is the concentration that inhibits the measured activity by half.

Experiment [1] has as its target T1, SET7/9 (Homo sapiens, UniProt Q8WTS6).
T1 sequence (Q8WTS6 1-366): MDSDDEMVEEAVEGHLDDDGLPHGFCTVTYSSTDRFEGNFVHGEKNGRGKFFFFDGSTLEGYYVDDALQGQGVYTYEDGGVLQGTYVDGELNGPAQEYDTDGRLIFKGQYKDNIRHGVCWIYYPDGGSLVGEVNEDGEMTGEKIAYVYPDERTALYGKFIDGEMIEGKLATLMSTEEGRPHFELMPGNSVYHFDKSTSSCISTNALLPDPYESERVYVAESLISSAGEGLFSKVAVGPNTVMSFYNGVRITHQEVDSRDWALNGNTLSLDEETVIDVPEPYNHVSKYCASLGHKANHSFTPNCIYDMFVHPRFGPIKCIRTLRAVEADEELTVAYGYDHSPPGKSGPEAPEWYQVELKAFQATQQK
To be noted: as described, Cheng et al.; cited from earlier work.

In experiment [2] the target is T2, PRMT1 (Homo sapiens, UniProt Q99873). To be noted: in-vitro, Cheng et al.; cited from earlier work.
Target sequence in this assay (Q99873 whole entry, species assumed): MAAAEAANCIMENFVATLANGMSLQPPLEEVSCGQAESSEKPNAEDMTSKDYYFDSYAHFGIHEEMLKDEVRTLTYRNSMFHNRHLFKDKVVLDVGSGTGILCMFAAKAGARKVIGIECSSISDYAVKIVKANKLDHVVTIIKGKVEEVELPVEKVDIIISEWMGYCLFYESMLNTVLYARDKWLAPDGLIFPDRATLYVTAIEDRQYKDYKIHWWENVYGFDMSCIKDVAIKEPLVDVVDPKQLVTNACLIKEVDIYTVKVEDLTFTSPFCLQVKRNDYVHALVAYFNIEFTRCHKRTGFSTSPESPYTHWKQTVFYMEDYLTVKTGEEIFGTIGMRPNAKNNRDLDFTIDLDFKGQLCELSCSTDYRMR
Experiment [3] deals with T1, SET7/9. Nature of the experiment: In vitro selectivity test against lysine methyltransferase. Type of experiment: biochemical. The source says:
Für die Enzymhemmung wurde ein Assay verwendet, der auf immobilisierten Oligopeptiden als Enzymsubstrate und den entsprechenden Enzymen beruht. Die Quantifizierung der Methylierung erfolgt über einen Antikörper gegen das Dimethylarginin und die Detektion über einen Europium gelabelten Sekundärantikörper. Die potentesten Verbindungen wurden ebenfalls in-vitro auf ihre Selektivität gegenüber SET7/9, einer Lysinmonomethyltransferase untersucht. Die Methodik der verwendeten Testverfahren ist im Detail in der Dissertation von Astrid Spannhoff, "Neue Testsysteme für Histonmethyltransferasen und Histondemethylasen", Albert-Ludwigs-Universität Freiburg, 2007 beschrieben. Der Offenbarungsgehalt dieser Arbeit wird durch Bezugnahme hier eingeschlossen.

Experiment [4] concerns the target T2, PRMT1. Put plainly: Target-based virtual screening combined with biochemical test, PRMT inhibition of known inhibitors.
Target sequence in this assay (Q99873 whole entry): as the sequence (Q99873 whole entry, species assumed) above

Where two headings read alike, the source gives them in different places.

In the case of `O=C(Nc1ccc2c(O)cc(S(=O)(=O)O)cc2c1)Nc1ccc2c(O)cc(S(=O)(=O)O)cc2c1` [AMI-1], the “Selektivität gegenüber der Lysinmethyltransferase SET7/9” value in experiment [1] is recorded as “selektiv”.
For the compound `O.O.O.O=C([O-])c1ccccc1-c1c2cc(Br)c(=O)c(Br)c-2oc2c(Br)c([O-])c(Br)cc12.[Na+].[Na+]` [AMI-5], in experiment [2], the IC50 is 1.4 µM. In addition, the “Selektivität gegenüber der Lysinmethyltransferase SET7/9” value in experiment [1] is given as “dualer Inhibitor”.
Turning to Allantodapson, the IC50 in experiment [3] came out at 11 µM; in experiment [4] (inhibitors of PRMT from target-based screening), 1.7 µM. Further, in experiment [4] (conclusion from docking and competition experiments), the “Mode of inhibition (Docking- und Kompetitionsexperimente)” value is listed as “zum Sustrat kompetitive Verbindungen”.
